The values below come from ChEMBL document CHEMBL6114947, “Navigating cancer therapy: Harnessing the power of peptide-drug conjugates as precision delivery vehicles” (Eur J Med Chem, 2025).

Data set [1] in a line: Half life in BALB/c mouse plasma at 5 mg/kg, iv by LC-MS/MS analysis.
The test system of data set [2] is PANC-1. In words: Antitumor activity against human PANC-1 cells xenografted in BALB/c mouse assessed as reduction in tumor volume at 2 mg/kg, iv administered once every 2 days and measured on day 74 relative to control. The class given is functional. To be noted: time 74 day. More on the design: scale not given: the % may be the effect or the level left. In general terms: A xenograft is tissue or cells of one species grown in another, often human tumour cells in immunodeficient mice.

In data set [1], `COc1cccc2c1C(=O)c1c(O)c3c(c(O)c1C2=O)C[C@@](O)(C(=O)CO)C[C@@H]3O[C@H]1C[C@H](N)[C@H](O)[C@H](C)O1` [DOXORUBICIN] showed a half-life of 29.4 h.
`COc1cccc2c1C(=O)c1c(O)c3c(c(O)c1C2=O)C[C@@](O)(C(C)=O)C[C@@H]3O[C@H]1C[C@H](N)[C@H](O)[C@H](C)O1` [DAUNORUBICIN]: the Activity in data set [2] was 32.2%.

Usually half-life stands for how long it takes for the measured level to halve.
